From a melting point compilation (Tetko et al.) come the findings set out here.

As for `CCN1N=C(C(=O)O)CC1=O`, the melting point was 256 to 258 °C.

Turning to `Nc1cncc(Cl)n1`, the melting point was 149 to 151 °C.

In turn, `COc1ccc(N)cc1S(=O)(=O)Nc1ccc(Cl)cc1` had a melting point of 105 to 107 °C.

Turning to `O=C(O)c1cccc(-c2ccoc2)c1`, the melting point is 144 to 146 °C.

`O=C(O)C1CC(c2ccc(Cl)cc2)C1` (configuration not stated) had a melting point of 119 to 121 °C.

For `CCCOC(=O)c1cc(-c2cncnc2)ccc1N`, the melting point lay in the range of 145 to 147 °C.

The molecule `COc1ccc(-c2nnc(Cl)c3ccccc23)cc1` returned a melting point of 148 to 150 °C.

The molecule `COc1ccc(C(N)C(=O)O)cc1` (configuration not stated) gave a melting point of 232 to 234 °C.

`CCc1cc2c(CCl)cc(=O)oc2cc1O` came in with a melting point of 216 to 218 °C.

`Nc1ccc2nc(-c3ccccn3)oc2c1` displayed a melting point of 178 to 180 °C.

The molecule `Cc1nc(N)sc1Cc1ccc(F)cc1` came in with a melting point of 94 to 96 °C.

`NC1CCc2[nH]ncc2C1` (configuration not stated) registered a melting point of 168 to 170 °C.

The molecule `O=S(=O)(CCCl)c1cccc(Br)c1` came in with a melting point of 63 to 65 °C.

In the case of `Cc1c(C(=O)O)nnn1-c1cccc2ncccc12`, the melting point was in the range of 209 to 211 °C.

For `COc1ccc(NC(=O)CC#N)cc1Cl`, the melting point fell in the range of 110 to 112 °C.

Regarding `CC(C)C(C)(C#N)NC(=O)CCl` (configuration not stated), the melting point was in the range of 71 to 73 °C.

Molecule `NNC(=O)c1cc(N)cc([N+](=O)[O-])c1` came in with a melting point of 227 to 229 °C.

Regarding `CC(C(=O)O)n1nnnc1C(C)(C)C` (configuration not stated), the melting point lay in the range of 171 to 173 °C.

In turn, `N#CCCCS(=O)(=O)c1ccc(C(=O)O)cc1` came in with a melting point of 195 to 197 °C.

In the case of `Nc1ccnc(Sc2ccccn2)c1`, the melting point fell in the range of 99 to 101 °C.

Consider `O=S(=O)(Cl)c1c[nH]c2ncccc12`, for which the melting point was 187 to 189 °C.

For the molecule `CN1CCN(C(=O)c2ccccc2C(=O)O)CC1`, the melting point lay in the range of 274 to 276 °C.

For `O=CN1CC(=O)NC(=O)C1`, the melting point lay in the range of 213 to 215 °C.

Molecule `Cc1cc(C)nc(SCC(=O)NN)n1` displayed a melting point of 119 to 121 °C.

Turning to `CN(C)C(=O)Nc1cccc(C(=O)O)c1`, the melting point was in the range of 209 to 211 °C.

`Nc1ccc(CCn2nnc(-c3ccccc3)n2)cc1` registered a melting point of 99 to 101 °C.

With `CC(=O)NC(=O)CCl`, the melting point was in the range of 113 to 115 °C.

`Cn1c(=O)[nH]c(=O)c2cc(S(=O)(=O)Cl)cnc21` returned a melting point of 214 to 216 °C.

Take `CCCN1C(=O)CC(=O)NC1=S`: the melting point is 127 to 129 °C.

In turn, `Nc1nnc(-c2ccc(F)cc2)[nH]1` came in with a melting point of 223 to 227 °C.

Turning to `CC(=O)c1cc2cc(C)c(C)cc2o1`, the melting point was 89 to 91 °C.

Molecule `Cc1n[nH]c(C)c1C(C)C(=O)O` (configuration not stated) returned a melting point of 181 to 183 °C.

For the molecule `O=C(CCl)Nc1cccc(C(=O)Nc2cccc(C(F)(F)F)c2)c1`, the melting point lay in the range of 197 to 199 °C.

For `Cc1[nH]c2c(F)cccc2c(=O)c1C`, the melting point is 284 to 286 °C.

In turn, `Cc1sc2ncnc(NN)c2c1C` displayed a melting point of 208 to 210 °C.

Molecule `NC(=O)C1CCCN(Cc2ccccc2N)C1` (configuration not stated) registered a melting point of 133 to 135 °C.

`Cc1ccc(NC(=O)CN(C)C(=O)CCl)cc1` displayed a melting point of 145 to 147 °C.

`COc1ccc(NC(=O)Nc2ccc(OC)nc2)cn1` displayed a melting point of 215 to 217 °C.

Molecule `Nc1cc(F)cc(C(=O)O)c1F` displayed a melting point of 161 to 163 °C.

Turning to `O=C(O)c1cccc(S(=O)(=O)Cc2ccccc2)c1`, the melting point lay in the range of 214 to 216 °C.

The molecule `N#Cc1cc[nH]c1` yielded a melting point of 55 to 57 °C.

Take `O=c1c2c(-c3ccco3)csc2nc(S)n1-c1ccccc1`: the melting point is 242 to 244 °C.

`NC(=S)N1CCN(c2ccccn2)CC1` gave a melting point of 164 to 166 °C.

On to `CC(C)c1[nH]nc(C(=O)O)c1[N+](=O)[O-]`, for which the melting point was in the range of 149 to 151 °C.

Regarding `COc1cn(-c2ccccc2)nc1C(=O)O`, the melting point fell in the range of 144 to 148 °C.

In turn, `N#Cc1c(-c2ccccc2)nc(S)[nH]c1=O` yielded a melting point of 327 to 329 °C.

For the molecule `O=C(O)c1cc2c([nH]c1=O)CCCCC2`, the melting point lay within 247 to 249 °C.

The molecule `O=C(O)CSCC(=O)c1ccccc1` registered a melting point of 95 to 97 °C.

`O=C(O)c1cccc(NS(=O)(=O)c2ccc3ccccc3c2)c1` returned a melting point of 205 to 207 °C.

Turning to `CCOC(=O)C1=NN(CC)C(=O)C1`, the melting point is 135 to 137 °C.

With `Nc1nc2ccccc2nc1N1CCCC1`, the melting point fell in the range of 149 to 151 °C.

The molecule `NC(=NO)c1ccccc1CN1CCC(O)CC1` came in with a melting point of 137 to 139 °C.

As to `Nc1nnc(CCc2ccccc2)o1`, the melting point lay within 195 to 197 °C.

In turn, `O=C(Nc1ccccc1C(=O)O)OCc1ccccc1` registered a melting point of 129 to 131 °C.

Regarding `O=C(O)C1CCCc2[nH]ncc21` (configuration not stated), the melting point was in the range of 176 to 178 °C.

For the molecule `CN(c1cccc(Cl)c1)S(=O)(=O)c1cccc(C(=O)O)c1`, the melting point lay in the range of 162 to 164 °C.

As to `O=C(O)CNc1ccc(C(=O)O)cc1`, the melting point lay within 266 to 268 °C.

`O=C1C(Br)CCN1c1ccc(Cl)cc1` (configuration not stated) showed a melting point of 83 to 85 °C.

On to `CCN1CCN(S(=O)(=O)c2ccc(CCC(=O)O)cc2)CC1`, for which the melting point lay in the range of 239 to 241 °C.

On to `NCCCN1C(=O)NC2(CCCCC2)C1=O`, for which the melting point was 124 to 126 °C.

The molecule `CCOC(=O)N1CCC(NC(N)=O)CC1` displayed a melting point of 203 to 205 °C.

As to `CCN(CC)c1ccc([N+](=O)[O-])cc1C(=O)O`, the melting point lay within 184 to 186 °C.

With `Cc1cc(C(=O)O)sc1Br`, the melting point lay within 171 to 173 °C.

Take `CC(Cl)C(=O)Nc1cccc(S(=O)(=O)N2CCCCC2)c1` (configuration not stated): the melting point was in the range of 163 to 165 °C.

The molecule `COc1ccc(NC(=O)C(C)Cl)c(OC)c1` (configuration not stated) returned a melting point of 65 to 67 °C.

`NNC(=O)c1ccc(CSc2nc3ccccc3[nH]2)cc1` registered a melting point of 64 to 66 °C.

For the molecule `COC(=O)c1ccncc1C(=O)O`, the melting point is 175 to 177 °C.

`O=C1COc2cc(F)ccc2N1`: the melting point is 206 to 208 °C.

As to `OCCN1CCN(Cc2ccsc2)CC1`, the melting point lay in the range of 68 to 70 °C.

On to `CCOC(C)c1ncc[nH]1` (configuration not stated), for which the melting point was in the range of 69 to 71 °C.

Molecule `O=C1NC(=O)C2(CCSC2)N1` (configuration not stated) showed a melting point of 243 to 245 °C.

`O=C(O)c1cc(OCC(F)(F)F)c2ccccc2n1` registered a melting point of 206 to 208 °C.

In the case of `CC(=O)Nc1ccc(C)cc1O`, the melting point lay within 170 to 172 °C.

Turning to `NC(=O)C1(N)CCOCC1`, the melting point was in the range of 78 to 80 °C.

As for `NNC(=O)Nc1ccc(S(N)(=O)=O)cc1`, the melting point fell in the range of 216 to 218 °C.

`CCS(=O)(=O)N1Cc2ccccc2CC1C(=O)O` (configuration not stated) gave a melting point of 110 to 114 °C.

`CC(C)Nc1cccc(O)c1` yielded a melting point of 95 to 97 °C.

Consider `N#Cc1cccc(N2CCCC2=O)c1`, for which the melting point was 81 to 83 °C.

On to `CC1CCC(C)N1c1cn[nH]c1` (configuration not stated), for which the melting point was in the range of 65 to 67 °C.

In turn, `Cc1ccc(OC2CCNCC2)cc1` came in with a melting point of 44 to 46 °C.

`CC(C)(C)c1nc(=N)s[nH]1` came in with a melting point of 160 to 162 °C.

As to `O=C1CC(Cc2ccc(F)cc2)C(=O)N1` (configuration not stated), the melting point lay in the range of 107 to 109 °C.

Molecule `Cn1cnnc1Sc1ccc(Br)cc1N` showed a melting point of 144 to 146 °C.

On to `CCn1c(C(=O)O)cc2ccccc21`, for which the melting point was in the range of 177 to 179 °C.

Consider `NCC(O)C1CCCCC1` (configuration not stated), for which the melting point was in the range of 85 to 87 °C.

Turning to `O=C(O)c1cc(-c2ccco2)nc2onc(C3CC3)c12`, the melting point was 215 to 217 °C.

As to `Nc1nc(Cl)ccc1Cl`, the melting point lay in the range of 94 to 96 °C.

Consider `NNC(=O)C1COc2ccccc2O1` (configuration not stated), for which the melting point was in the range of 111 to 113 °C.

`CCn1c(=O)c(C)nc2cc(C(=O)O)ccc21` yielded a melting point of 204 to 206 °C.

`NC(=O)C1CCN(CCc2ccc(N)cc2)CC1`: the melting point fell in the range of 223 to 225 °C.

`NC1=NN(c2ccccc2)CC1` yielded a melting point of 168 to 170 °C.

Turning to `O=C(O)c1cc(F)cc([N+](=O)[O-])c1Br`, the melting point was in the range of 177 to 179 °C.

`Cc1ccccc1-c1cc(N)n(C)n1` returned a melting point of 97 to 99 °C.

In turn, `O=C(O)C1(O)CCCC1` gave a melting point of 84 to 86 °C.

Regarding `O=C(O)CNC(=O)c1ccc2c(c1)OCO2`, the melting point was 158 to 160 °C.

`CCc1ccccc1N(C(C)=O)c1nc(CN=C=S)cs1` displayed a melting point of 96 to 98 °C.

Regarding `NC(=O)CCSc1ccc(F)cc1`, the melting point lay within 119 to 121 °C.

For the molecule `CC(=O)N1CCCCC1C(=O)O` (configuration not stated), the melting point lay in the range of 137 to 139 °C.

Molecule `O=C(/C=C/c1ccc2c(c1)CCO2)N1CCCC(CO)C1` (configuration not stated) registered a melting point of 131 to 133 °C.

For the molecule `CC(C)CC1CC(=O)NC(=O)C1`, the melting point is 136 to 138 °C.

The molecule `CC(Cl)c1cccc([N+](=O)[O-])c1` (configuration not stated) displayed a melting point of 33 to 35 °C.

Consider `O=C(O)CN1C(=O)Cc2ccccc21`, for which the melting point was in the range of 220 to 222 °C.

On to `CC(CC(=O)O)c1ccccc1C(F)(F)F` (configuration not stated), for which the melting point lay in the range of 76 to 78 °C.

`CCCS(N)(=O)=O` returned a melting point of 47 to 49 °C.

The molecule `O=C(O)c1ccc(Br)cc1OC(F)F` registered a melting point of 133 to 135 °C.

In turn, `NC(=O)c1cccc(Oc2ccc(N)cn2)c1` gave a melting point of 195 to 197 °C.

For the molecule `O=C(CCl)NCCc1cccc2ccccc12`, the melting point fell in the range of 104 to 106 °C.

`O=C(O)C1CCN(C(=O)C2(c3ccccc3)CCC2)CC1` yielded a melting point of 146 to 148 °C.

As for `NS(=O)(=O)c1ccc(CCNS(=O)(=O)c2cccc(C(=O)O)c2)cc1`, the melting point lay in the range of 226 to 228 °C.

Molecule `C#CCNC(=O)Nc1ccccc1Cl` had a melting point of 173 to 175 °C.

As to `O=C(O)c1ccc(-c2cccs2)[nH]c1=O`, the melting point was in the range of 289 to 291 °C.

The molecule `O=C(COc1ccccc1C(=O)O)Nc1cccc(C(F)(F)F)c1` had a melting point of 243 to 245 °C.

`NS(=O)(=O)CCOc1ccccc1` showed a melting point of 102 to 104 °C.

In turn, `Cn1cnnc1Sc1ccc(N)cc1` gave a melting point of 153 to 157 °C.

`Cc1nc(Cl)cc(-n2ccnc2)n1`: the melting point fell in the range of 114 to 116 °C.

`COC(=O)C(=O)CC(=O)c1ccncc1`: the melting point was in the range of 93 to 95 °C.

Molecule `Nc1nnn(Cc2ccccc2)n1` had a melting point of 183 to 185 °C.

As to `CN(C)S(=O)(=O)c1ccc(S(=O)(=O)Cl)c([N+](=O)[O-])c1`, the melting point lay within 153 to 155 °C.

On to `O=C(O)c1ccc(-n2cncn2)nc1`, for which the melting point is 341 to 343 °C.

`CCOC(=O)c1[nH]c(C)c(C(=O)CCl)c1C`: the melting point was in the range of 159 to 161 °C.

With `O=C(NC(Cc1ccccc1)C(=O)O)c1cccnc1` (configuration not stated), the melting point is 206 to 208 °C.

As for `Nc1ccc2nncn2c1`, the melting point fell in the range of 169 to 171 °C.
